Key:
[1] = system: E.G7-OVA cells (B3Z activation); assay: B3Z activation by E.G7-OVA cells; assay type: cell-based, murine
Experimental: Activation of B3Z T cell hybridoma cells was assessed following their exposure to various MHC class I H-2K^b positive cell lines presenting the SIINFEKL peptide. To stimulate β-gal production in the B3Z, the H-2Kb murine cell lines, DC2.4 and E.G7-OVA were plated at a density of 2.5 or 5×10^4 cells/well (100 μL/well in 96 well plates) and cultured overnight at 37° C. in an atmosphere containing 5% CO2 and 95% humidity. The cells were washed with DPBS and then treated for 1-24 h with the indicated concentrations of BzFβ suspended in complete media. Vehicle controls were always included. Cells being examined for the uptake and processing of soluble OVA were co-treated with BzFβ and 0.5 mg/mL grade V chicken ovalbumin for 6-24 h, and then washed and cocultured with B3Z as indicated.
Following the pretreatment with BzFβ, the media was removed from adherent cells (DC2.4 or B16F10) or was removed following pelleting of nonadherent cells in the plate. The cells were then pulsed with various concentrations of SIINFEKL peptide (typically 0.5 nM was used) for the indicated lengths of time (typically 1 h). The cells were washed and then 100 μL of complete DMEM containing 5×10^4 B3Z cells was added. […] The absorbance at 560 nm (700 nm for background) was intermittently monitored using a BioTek Synergy HTX multimode microplate reader (Winooski, VT) to detect β-gal activity. […]

[2] = system: SIINFEKL specific CD8+ T cells; assay: Immunization with BzFβ/SIINFEKL treated DC2.4 cells; assay type: in vivo, C57BL/6crl mice; details: mice immunized sc with 1.2×10^6 DC2.4 treated with 50 μg/mL BzFβ then 1 μg/mL SIINFEKL; prime and boost
Experimental: DC2.4 cells that had been matured by an overnight treatment with 20 ng/mL murine IFNγ (He, et al., Interferon gamma stimulates cellular maturation of dendritic cell line DC2.4 leading to induction of efficient cytotoxic T cell responses and antitumor immunity. Cell Mol Immunol. 2007; 4(2):105-11) were treated with 30 μg/mL mitomycin C to block replication and were then pulsed for 1 h with 1 μg/mL SIINFEKL peptide (Group 2), or with 50 μg/mL BzFβ for 1 h and then with 1 μg/mL SIINFEKL peptide for 1 h (Group 3).
Female C57BL/6crl mice were separated into 3 groups with 6 mice per group. The mice in Group 1 served as the naïve, no treatment group, Group 2 treated with by subcutaneous injection of 1.2×10^6 DC2.4 cells primed with IFNγ, mitomycin C and SIINFEKL, and Group 3 treated by subcutaneous injection of 1.2×10^6 DC2.4 cells primed with BzFβ and SIINFEKL as outlined above. […] Fourteen days later, the number of MHC class I/SIINFEKL tetramer positive CD8+ cells in the peripheral blood and spleen were determined.
On day 21 (14 days after the last immunization) blood was collected from the retro-orbital plexus. […] The number of CD19 negative^−/CD8 positive/SIINFEKL tetramer positive cells was determined by flow cytometric analysis following collection of positive events detected in the lymphocyte gate. […]

O=C(O)/C=C/c1ccc2occc2c1 [BzFβ, (2E)-3-(1-benzofuran-5-yl)prop-2-enoic acid]
ability of E.G7-OVA cells to activate B3Z ([1]; 0-100 μg/mL BzFβ): dose-dependently reduced | lowest dose with significant effect ([1]; E.G7-OVA, B3Z assay): 6.25 µg/mL | SIINFEKL-specific CD8+ T cell response [2]: enhanced SIINFEKL-specific CD8+ T cell response

Reference: patent publication US20250381165A1, “Method of Use for Benzofuran Compounds” (Tampa Bay Research Institute, Inc., priority 2024, published 2025)
